# Reference: ChEMBL document CHEMBL3286333, “Concise synthesis of C-1-cyano-iminosugars via a new Staudinger/aza Wittig/Strecker multicomponent reaction strategy” (Bioorg Med Chem Lett, 2014)
# Columns and labels:
# [1] = target: T1, Lysosomal acid glucosylceramidase (Homo sapiens, UniProt P04062); assay: Inhibition of human lysosomal beta-glucocerebrosidase
# T1 sequence (P04062 whole entry): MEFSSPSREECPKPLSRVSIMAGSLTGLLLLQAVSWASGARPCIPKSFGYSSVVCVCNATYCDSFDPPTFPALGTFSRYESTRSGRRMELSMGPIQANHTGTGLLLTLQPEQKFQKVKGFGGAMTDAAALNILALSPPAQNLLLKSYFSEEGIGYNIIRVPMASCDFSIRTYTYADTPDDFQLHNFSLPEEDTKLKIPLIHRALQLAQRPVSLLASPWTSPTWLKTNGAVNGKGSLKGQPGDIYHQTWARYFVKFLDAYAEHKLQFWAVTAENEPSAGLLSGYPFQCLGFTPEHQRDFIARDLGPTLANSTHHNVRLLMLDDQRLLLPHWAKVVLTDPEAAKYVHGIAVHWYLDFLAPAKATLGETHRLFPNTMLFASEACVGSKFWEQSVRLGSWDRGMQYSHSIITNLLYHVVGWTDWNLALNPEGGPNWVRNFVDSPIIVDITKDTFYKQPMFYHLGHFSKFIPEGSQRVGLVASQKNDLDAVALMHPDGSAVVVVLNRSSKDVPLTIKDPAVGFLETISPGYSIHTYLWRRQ
# [2] = target: T1, Lysosomal acid glucosylceramidase; assay: Inhibition of human lysosomal beta-glucocerebrosidase using 2,4-dinitrophenyl-beta-D-glucopyranoside as substrate by UV spectrophotometric analysis
Ki [1] [µM],Ki [2] [µM],Structure (SMILES)
0.001,,O[C@@H]1[C@@H](O)[C@@H](CCCCCOCC23CC4CC(CC(C4)C2)C3)NC[C@H]1O
,34,N#C[C@H]1NC[C@@H](O)[C@H](O)[C@H]1O
,716,N#C[C@H]1N[C@H](CO)[C@@H](O)[C@H](O)[C@H]1O
,0.0075,CN(C)c1cccc2c(S(=O)(=O)NC[C@H]3NC[C@@H](O)[C@H](O)[C@H]3O)cccc12
